{"source": "patent US20240041038A1", "about": "(priority 2020, published 2024)", "key": {"[1]": {"tested_on": "corn earworm (Helicoverpa zea)", "conditions": "in vivo"}, "[2]": {"tested_on": "corn earworm (Helicoverpa zea)", "conditions": "in vivo", "remark": "listed apart in the source"}, "[3]": {"tested_on": "lesser mealworm (Alphitobius diaperinus)", "experiment": "whole plant or invertebrate", "conditions": "96 h, read-out: mortality rate"}, "[4]": {"tested_on": "beet armyworm (Spodoptera exigua)", "conditions": "in vivo"}}, "note": "Bridges are numbered along the chain shown (N, C = ends). Where no end group is shown, it is not given here.", "data": [{"molecule": "C/C=C(\\C)C(=O)O[C@H]1C[C@@H](OC(C)=O)[C@@]2(C(=O)OC)CO[C@H]3[C@@H](O)[C@@](C)([C@]45O[C@@]4(C)[C@H]4C[C@@H]5O[C@@H]5OC=C[C@@]54O)[C@H]4[C@]1(CO[C@]4(O)C(=O)OC)[C@@H]32", "note": "[Azadirachtin]", "values": [{"measurement": "mortality", "setting": "[1]", "value": 37.5, "unit": "%"}]}, {"molecule": "O=C(NC(=O)c1c(F)cccc1F)Nc1ccc(OC(F)(F)C(F)OC(F)(F)F)c(Cl)c1", "note": "(centres unmarked) [Novaluron]", "values": [{"measurement": "greater than additive insecticidal effect when combined with U+2-ACTX-Hv1a", "setting": "[2]", "value": "Novaluron*"}]}, {"molecule": "OB(O)O", "note": "[boric acid]", "values": [{"measurement": "mortality at 2500 µg/mL", "setting": "[3]", "value": 10.3, "unit": "%"}]}, {"molecule": "GSCADINGACKSDCDCCGDSVTCDCYWSDSCKCRESNFKIGMAIRKKFC (disulfide 3-17, 10-23, 14-49, 16-33, 25-31) [Γ-CNTX-Pn1a]", "values": [{"measurement": "mortality", "setting": "[4]", "value": 6, "unit": "%"}, {"measurement": "mortality rate", "setting": "[4]", "value": 3, "unit": "%"}]}]}
